# Experimental data taken from patent US10111435B2, “Herbicidal compositions containing N-(1,3,4-oxadiazol-2-yl)-aryl carboxylic acid amides” (BAYER CROPSCIENCE AKTIENGESELLSCHAFT, priority 2013, dated 2018).
# Legend:
# Assay type in all cases: in vivo
# [1] = test system: Echinochloa crus-galli (ECHCG); assay: greenhouse post-emergence herbicidal efficacy against ECHCG
# Experimental: (§1) All trials whose results are shown were conducted in a greenhouse by the methodology specified below. The effect of the inventive herbicidal compositions was examined on the following harmful plants 14 and 21 days after application:
# (§2) Echinochloa crus-galli (ECHCG), Eleusine indica (ELEIN), Setaria viridis (SETVI), Amaranthus retroflexus (AMARE), Chenopodium album (CHEAL), Kochia scoparia (KCHSC), Solanum nigrum (SOLNI), Avena fatua (AVEFA), Bromus sterilis (BROST), Lolium multiflorum (LOLMU), Phalaris minor (PHAMI), Poa annua (POAAN), Galium aparine (GALAP), Matricaria inodora (MATIN) and Polygonum convolvulus (POLCO).
# (§3) The harmful plant seeds were sown in pots (diameter 8 cm) with sandy loam soil and germinated under optimal conditions. The inventive herbicidal compositions or the active ingredients alone were applied post-emergence to the planted pots with a spray volume of 300 L/ha. The trial was conducted in a greenhouse under optimum growth conditions. The herbicidal effects were assessed visually by comparison of untreated and treated plants. The percentages mean: 0%=no effects, 100%=the plants die off completely). The percentages are used to calculate interactions between individual treatments and combination treatments according to S. R. Colby, Weeds 15, pages 20 to 22 (1967).
# (§4) The abbreviations mean: • a.i.=active ingredient • E^C=expected value according to Colby (E^C=A+B−A×B/100) • Diff: =difference (%) of measured value from expected value (%) (measured value minus expected value)
# (§5) Assessment: • measured value E is greater than E^C:->synergism (+ diff.) • measured value E equals E^C:->additive effect • measured value E is smaller than E^C:->antagonism(− diff.)
# Eleusine indica (ELEIN) = assay: greenhouse post-emergence herbicidal efficacy against ELEIN
# Experimental: as §1, §2, §3, §4, §5
# Setaria viridis (SETVI) = assay: greenhouse post-emergence herbicidal efficacy against SETVI
# Experimental: as §1, §2, §3, §4, §5
# [2] = test system: Chenopodium album (CHEAL); assay: greenhouse post-emergence herbicidal efficacy against CHEAL
# Experimental: as §1, §2, §3, §4, §5
# Kochia scoparia (KCHSC) = assay: greenhouse post-emergence herbicidal efficacy against KCHSC
# Experimental: as §1, §2, §3, §4, §5
# Avena fatua (AVEFA) = assay: greenhouse post-emergence herbicidal efficacy against AVEFA
# Experimental: as §1, §2
# (§6) The harmful plant seeds were sown in pots (diameter 8 cm) with sandy loam soil and germinated under optimal conditions. The inventive herbicidal compositions or the active ingredients alone were applied post-emergence to the planted pots with a spray volume of 300 L/ha. The trial was conducted in a greenhouse under optimum growth conditions. The herbicidal effects were assessed visually by comparison of untreated and treated plants. The percentages mean: 0%=no effects, 100%=the plants die off completely).
# as §4, §5
# Bromus sterilis (BROST) = assay: greenhouse post-emergence herbicidal efficacy against BROST
# Experimental: as §1, §2, §6, §4, §5
# [3] = test system: Lolium multiflorum (LOLMU); assay: greenhouse post-emergence herbicidal efficacy against LOLMU
# Experimental: as §1, §2, §6, §4, §5
# Phalaris minor (PHAMI) = assay: greenhouse post-emergence herbicidal efficacy against PHAMI
# Experimental: as §1, §2, §6, §4, §5
# Poa annua (POAAN) = assay: greenhouse post-emergence herbicidal efficacy against POAAN
# Experimental: as §1, §2, §6, §4, §5
# Galium aparine (GALAP) = assay: greenhouse post-emergence herbicidal efficacy against GALAP
# Experimental: as §1, §2, §6, §4, §5
# [4] = test system: Matricaria inodora (MATIN); assay: greenhouse post-emergence herbicidal efficacy against MATIN
# Experimental: as §1, §2, §6, §4, §5
# [5] = test system: Polygonum convolvulus (POLCO); assay: greenhouse post-emergence herbicidal efficacy against POLCO
# Experimental: as §1, §2, §6, §4, §5
# Solanum nigrum (SOLNI) = assay: greenhouse post-emergence herbicidal efficacy against SOLNI; conditions: 21 days after application
# Experimental: as §1, §2, §3, §4, §5
# DIGSA = assay: greenhouse post-emergence herbicidal efficacy against DIGSA; conditions: 14 days after application, 4 g of a.i./ha
# Experimental: as §1, §3, §4, §5
# [6] = 14 days after application, 1 g of a.i./ha
# [7] = 14 days after application, 4 g of a.i./ha
# [8] = 21 days after application, 4 g of a.i./ha
# [9] = 21 days after application, 1 g of a.i./ha
# [10] = 14 days after application, 5 g of a.i./ha
# [11] = 14 days after application, 20 g of a.i./ha
# [12] = 21 days after application, g of a.i./ha: A1-3 5, pinoxaden 20
# [13] = 21 days after application, g of a.i./ha: A1-3 20, pinoxaden 5
# [14] = 21 days after application, g of a.i./ha: A1-3 20, pinoxaden 20
# [15] = 14 days after application, 12.5 g of a.i./ha
# [16] = 14 days after application, 50 g of a.i./ha
# [17] = 14 days after application, g of a.i./ha: A1-57 12.5, aclonifen 200
# [18] = 21 days after application, g of a.i./ha: A1-57 12.5, aclonifen 800
# [19] = 14 days after application, g of a.i./ha: A1-57 12.5, aclonifen 800
# [20] = 14 days after application, g of a.i./ha: A1-57 50, aclonifen 800
# [21] = 21 days after application, g of a.i./ha: A1-57 50, aclonifen 800
# [22] = 14 days after application, g of a.i./ha: A1-57 50, aclonifen 200
# [23] = 21 days after application, g of a.i./ha: A1-57 12.5, aclonifen 200
# [24] = 21 days after application, g of a.i./ha: A2-1 12.5, fluroxypyr 80
# [25] = 21 days after application, g of a.i./ha: A2-1 50, fluroxypyr 80
# [26] = 21 days after application, g of a.i./ha: A2-1 12.5, fluroxypyr 20
# [27] = 21 days after application, g of a.i./ha: A2-1 50, fluroxypyr 20
# [28] = 14 days after application, 0.5 g of a.i./ha
# [29] = 14 days after application, 2 g of a.i./ha
# [30] = 21 days after application, 2 g of a.i./ha
# [31] = 21 days after application, 0.5 g of a.i./ha
smiles,measurement,setting,value
COCc1nnc(NC(=O)c2ccc(C(F)(F)F)c(S(C)(=O)=O)c2C)o1 [A1-3],Efficacy,[1]; [6],0%
same,Efficacy,[1]; [7],40%
same,Efficacy,[1]; [8],10%
same,Efficacy,[1]; [9],0%
same,Efficacy,Eleusine indica (ELEIN); [7],50%
same,Efficacy,Eleusine indica (ELEIN); [8],20%
same,Efficacy,Setaria viridis (SETVI); [8],20%
same,Efficacy,Setaria viridis (SETVI); [9],10%
same,Efficacy,[2]; [9],20%
same,Efficacy,Kochia scoparia (KCHSC); [7],40%
same,Efficacy,Kochia scoparia (KCHSC); [8],20%
same,Efficacy,Avena fatua (AVEFA); [10],0%
same,Efficacy,Avena fatua (AVEFA); [11],0%
same,Efficacy,Bromus sterilis (BROST); [10],0%
same,Efficacy,Bromus sterilis (BROST); [11],5%
same,Efficacy,[3]; [10],0%
same,Efficacy,[3]; [12],0%
same,Efficacy,[3]; [13],5%
same,Efficacy,Phalaris minor (PHAMI); [10],0%
same,Efficacy,Phalaris minor (PHAMI); [11],20%
same,Efficacy,Phalaris minor (PHAMI); [13],5%
same,Efficacy,Phalaris minor (PHAMI); [14],5%
same,Efficacy,Poa annua (POAAN); [10],0%
same,Efficacy,Poa annua (POAAN); [11],5%
same,Efficacy,Poa annua (POAAN); [12],0%
same,Efficacy,Poa annua (POAAN); [14],3%
same,Efficacy,Galium aparine (GALAP); [10],40%
same,Efficacy,Galium aparine (GALAP); [12],5%
same,Efficacy,Galium aparine (GALAP); [13],5%
same,Efficacy,Galium aparine (GALAP); [14],5%
same,Efficacy,[4]; [10],30%
same,Efficacy,[5]; [10],0%
same,Efficacy,[5]; [11],10%
same,Efficacy,[5]; [13],5%
same,Efficacy,[5]; [14],5%
Cc1nnc(NC(=O)c2ccc(S(C)(=O)=O)c(OCCF)c2Cl)o1 [A1-57],Efficacy,Eleusine indica (ELEIN); [9],10%
same,Efficacy,[2]; [9],30%
same,Efficacy,Kochia scoparia (KCHSC); [6],40%
same,Efficacy,Kochia scoparia (KCHSC); [9],20%
same,Efficacy,Avena fatua (AVEFA); [15],0%
same,Efficacy,Avena fatua (AVEFA); [16],0%
same,Efficacy,Avena fatua (AVEFA); [17],0%
same,Efficacy,Avena fatua (AVEFA); [18],0%
same,Efficacy,Bromus sterilis (BROST); [17],0%
same,Efficacy,Bromus sterilis (BROST); [19],0%
same,Efficacy,Bromus sterilis (BROST); [20],40%
same,Efficacy,Bromus sterilis (BROST); [18],0%
same,Efficacy,Bromus sterilis (BROST); [21],15%
same,Efficacy,[3]; [19],0%
same,Efficacy,[3]; [20],35%
same,Efficacy,Phalaris minor (PHAMI); [17],50%
same,Efficacy,Phalaris minor (PHAMI); [19],50%
same,Efficacy,Phalaris minor (PHAMI); [22],70%
same,Efficacy,Phalaris minor (PHAMI); [23],20%
same,Efficacy,Phalaris minor (PHAMI); [18],20%
same,Efficacy,Poa annua (POAAN); [17],15%
same,Efficacy,Poa annua (POAAN); [19],15%
same,Efficacy,Poa annua (POAAN); [22],50%
same,Efficacy,Poa annua (POAAN); [20],50%
same,Efficacy,Poa annua (POAAN); [18],10%
same,Efficacy,"Poa annua (POAAN); 21 days after application, g of a.i./ha: A1-57 50, aclonifen 200",35%
same,Efficacy,Poa annua (POAAN); [21],35%
same,Efficacy,Galium aparine (GALAP); [17],30%
same,Efficacy,Galium aparine (GALAP); [22],60%
same,Efficacy,Galium aparine (GALAP); [21],40%
same,Efficacy,[4]; [17],60%
same,Efficacy,[4]; [19],60%
same,Efficacy,[4]; [20],85%
same,Efficacy,[4]; [21],80%
same,Efficacy,[5]; [17],65%
same,Efficacy,[5]; [19],65%
same,Efficacy,[5]; [23],50%
Cc1nnc(NC(=O)c2ccc(C(F)(F)F)nc2C)o1 [A2-1],Efficacy,[1]; [7],50%
same,Efficacy,[1]; [8],40%
same,Efficacy,Eleusine indica (ELEIN); [8],60%
same,Efficacy,Setaria viridis (SETVI); [8],20%
same,Efficacy,Kochia scoparia (KCHSC); [8],40%
same,Efficacy,Solanum nigrum (SOLNI); 1 g of a.i./ha,10%
same,Efficacy,Avena fatua (AVEFA); [15],0%
same,Efficacy,Avena fatua (AVEFA); [16],0%
same,Efficacy,Avena fatua (AVEFA); [24],0%
same,Efficacy,Avena fatua (AVEFA); [25],0%
same,Efficacy,Bromus sterilis (BROST); [15],0%
same,Efficacy,Bromus sterilis (BROST); [25],0%
same,Efficacy,[3]; [15],0%
same,Efficacy,[3]; [16],0%
same,Efficacy,[3]; [25],0%
same,Efficacy,Phalaris minor (PHAMI); [15],15%
same,Efficacy,Phalaris minor (PHAMI); [24],0%
same,Efficacy,Phalaris minor (PHAMI); [25],15%
same,Efficacy,Poa annua (POAAN); [15],15%
same,Efficacy,Poa annua (POAAN); [26],0%
same,Efficacy,Poa annua (POAAN); [24],0%
same,Efficacy,[4]; [26],80%
same,Efficacy,[4]; [24],80%
same,Efficacy,[4]; [27],85%
same,Efficacy,[4]; [25],85%
same,Efficacy,[5]; [16],70%
same,Efficacy,[5]; [26],20%
same,Efficacy,[5]; [27],60%
COc1cc(OC)nc(NC(=O)NS(=O)(=O)c2cc(NC=O)ccc2C(=O)N(C)C)n1 [foramsulfuron],Efficacy,[1]; [6],60%
same,Efficacy,[1]; [9],30%
same,pest or weed control at 1 g/ha,"Eleusine indica (ELEIN); Eleusine indica, post-emergence, 504 h, 21 days after application, 1 g of a.i./ha",60%
same,Efficacy,Setaria viridis (SETVI); [6],40%
same,Efficacy,Setaria viridis (SETVI); [8],50%
same,Efficacy,Setaria viridis (SETVI); [9],20%
same,Efficacy,[2]; [6],50%
same,Efficacy,Kochia scoparia (KCHSC); [6],80%
same,Efficacy,Kochia scoparia (KCHSC); [7],90%
same,Efficacy,Kochia scoparia (KCHSC); [8],80%
same,Efficacy,DIGSA,40%
COc1c(Cl)ccc(-c2cc(N)c(Cl)c(C(=O)O)n2)c1F [halauxifen],Efficacy,[1]; [28],0%
same,Efficacy,[1]; [29],10%
same,Efficacy,[1]; [30],20%
same,Efficacy,Eleusine indica (ELEIN); [31],0%
same,Efficacy,Eleusine indica (ELEIN); [30],0%
same,Efficacy,Setaria viridis (SETVI); [30],0%
same,Efficacy,Kochia scoparia (KCHSC); [31],20%
same,Efficacy,Kochia scoparia (KCHSC); [30],30%
same,Efficacy,Solanum nigrum (SOLNI); 0.5 g of a.i./ha,50%
CS(=O)(=O)c1ccc(C(=O)C2C(=O)CCCC2=O)c(Cl)c1COCC(F)(F)F [tembotrione],Efficacy,[1]; [28],10%
same,Efficacy,[1]; [31],10%
same,Efficacy,[1]; [30],60%
same,pest or weed control at 0.5 g/ha,"Eleusine indica (ELEIN); Eleusine indica, post-emergence, 336 h, 14 days after application, 0.5 g of a.i./ha",30%
same,pest or weed control at 2 g/ha,"Eleusine indica (ELEIN); Eleusine indica, post-emergence, 336 h, 14 days after application, 2 g of a.i./ha",40%
same,pest or weed control at 0.5 g/ha,"Eleusine indica (ELEIN); Eleusine indica, post-emergence, 504 h, 21 days after application, 0.5 g of a.i./ha",0%
same,pest or weed control at 2 g/ha,"Eleusine indica (ELEIN); Eleusine indica, post-emergence, 504 h, 21 days after application, 2 g of a.i./ha",10%
same,Efficacy,Setaria viridis (SETVI); [31],0%
same,Efficacy,Setaria viridis (SETVI); [30],10%
same,Efficacy,[2]; [30],30%
same,Efficacy,Kochia scoparia (KCHSC); [29],20%
same,Efficacy,Kochia scoparia (KCHSC); [31],0%
same,Efficacy,Kochia scoparia (KCHSC); [30],10%
